Columns and labels:
[1] = test system: rhino virus typeII strain; assay: Anti-rhino activity, plaque inhibition in HeLa cells; type: cell-based; conditions: 72 h, plaque number, 30 μg/ml of compound, 3 days at 33° C., read-out: Inhibition percent (%)
[2] = test system: Vero cell (monkey kidney cell); assay: Cytotoxic activity, XTT method; type: cell-based; conditions: Primates, 96 h, Vero cells, cultured 4 days, read-out: 50% cell growth inhibitory concentration (IC50)

Compound | inhibition at 30 µg/mL [1] | IC50 [2]
CC(=O)NC(=O)c1nccnc1O [No. 3, N^2-acetyl-3-hydroxy-2-pyrazinecarboxamide] | 47.2% | –
NC(=O)c1nccnc1O [No. 1, 3-hydroxy-2-pyrazinecarboxamide] | – | ≥ 250 µg/mL

— patent publication USRE43748E1, “Nitrogen-containing heterocyclic carboxamide derivatives or salts thereof and antiviral agents comprising the same” (priority 1998, dated 2012)
